Laboratory results: patent US20230107642A1 (Erasca, Inc., priority 2020, published 2023)

Target: T1, Cys12 of the KRAS 4B G12C protein (Homo sapiens, UniProt P01116, G12C)
T1 construct: This protein contained 188 amino acids in total, including an N-terminal 6-Histidine tag; made in house; host or cells: E. coli BL21
Assay: In vitro covalent adduct formation (CAF) assay, LC-MS intact mass
Assay type: binding
Conditions: for % CAF 10 uM @ 60 min: 10 uM compound; for CAF (% after 1 hour): 10 μM compound
How it was run: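 Percent covalent modification from intact-mass LC-MS, by relative free versus adducted protein (adducts within 1 Da of expected mass). Reaction: 10 μM compound with 5 μM E. coli-expressed, GDP-exchanged KRAS 4B G12C in TBS pH 7.4, 4% DMSO, 1 h at 22° C.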

% CAF 10 uM @ 60 min (60 min) [%]	SMILES	other results
85	C=CC(=O)N1[C@H](C)CN(c2nc(=O)n3c4c(c(-c5ccc(F)cc5F)c(C(F)(F)F)cc24)SC[C@@H]3CN2CCN(CC)CC2)C[C@@H]1C (atropisomer, axis not shown) [Example 1330, (3S,10S)-7-((3S,5R)-4-acryloyl-3,5-dimethylpiperazin-1-yl)-10-(2,4-difluorophenyl)-3-((4-ethylpiperazin-1-yl)methyl)-9-(trifluoromethyl)-2,3-dihydro-5H-[1,4]thiazino[2,3,4-ij]quinazolin-5-one]	
68.7	C=CC(=O)N1[C@H](C)CN(c2nc(=O)n3c4c(c(-c5cc(Cl)c(F)cc5F)c(C(F)(F)F)cc24)SC[C@@H]3CN2CCN(CC)CC2)C[C@@H]1C (atropisomer, axis not shown) [Example 1339]	
29.7	C=CC(=O)N1C[C@H](C)N(c2nc(=O)n3c4c(c(-c5cc(Cl)c(F)cc5F)c(C(F)(F)F)cc24)SC[C@@H]3CN2C[C@@H]3C[C@H]2CO3)C[C@H]1C (atropisomer, axis not shown) [Example 1335, (3S,10S)-3-(((1S,4S)-2-oxa-5-azabicyclo[2.2.1]heptan-5-yl)methyl)-7-((2S,5R)-4-acryloyl-2,5-dimethylpiperazin-1-yl)-10-(5-chloro-2,4-difluorophenyl)-9-(trifluoromethyl)-2,3-dihydro-5H-[1,4]thiazino[2,3,4-ij]quinazolin-5-one]	
92.5	[2H]C([2H])([2H])OC[C@H]1CSc2c(-c3cc(Cl)c(F)cc3F)c(C(F)(F)F)cc3c(N4C[C@@H](C)N(C(=O)C=C)[C@@H](C)C4)nc(=O)n1c23 [Example 1417, (3S)-7-((3S,5R)-4-acryloyl-3,5-dimethylpiperazin-1-yl)-10-(5-chloro-2,4-difluorophenyl)-3-((methoxy-d3)methyl)-9-(trifluoromethyl)-2,3-dihydro-5H-[1,4]thiazino[2,3,4-ij]quinazolin-5-one]	
85	C=CC(=O)N1[C@H](C)CN(c2nc(=O)n3c4c(c(-c5cc(Br)c(F)cc5F)c(C(F)(F)F)cc24)SC[C@@H]3COC)C[C@@H]1C [Example 1443, (3S)-7-((3S,5R)-4-acryloyl-3,5-dimethylpiperazin-1-yl)-10-(5-bromo-2,4-difluorophenyl)-3-(methoxymethyl)-9-(trifluoromethyl)-2,3-dihydro-5H-[1,4]thiazino[2,3,4-ij]quinazolin-5-one]	
95.4	[2H]C([2H])([2H])OC[C@H]1CSc2c(-c3ccc(F)cc3F)c(C(F)(F)F)cc3c(N4C[C@@H](C)N(C(=O)C=C)[C@@H](C)C4)nc(=O)n1c23 [Example 1418, (3S)-7-((3S,5R)-4-acryloyl-3,5-dimethylpiperazin-1-yl)-10-(2,4-difluorophenyl)-3-((methoxy-d3)methyl)-9-(trifluoromethyl)-2,3-dihydro-5H-[1,4]thiazino[2,3,4-ij]quinazolin-5-one]	
86.3	C=CC(=O)N1C[C@H](C)N(c2nc(=O)n3c4c(c(-c5ccc(F)cc5F)c(C(F)(F)F)cc24)SC[C@@H]3COCOC)C[C@H]1C (atropisomer, axis not shown) [Example 1327, (3S,10R)-7-((2S,5R)-4-acryloyl-3,5-dimethylpiperazin-1-yl)-10-(2,4-difluorophenyl)-3-((methoxymethoxy)methyl)-9-(trifluoromethyl)-2,3-dihydro-5H-[1,4]thiazino[2,3,4-ij]quinazolin-5-one]	
82.2	C=CC(=O)N1[C@H](C)CN(c2nc(=O)n3c4c(c(-c5ccc(F)cc5F)c(C(F)(F)F)cc24)SC[C@@H]3CN(C)C)C[C@@H]1C (atropisomer, axis not shown) [Example 1324, (3S,10R)-7-((3S,5R)-4-acryloyl-3,5-dimethylpiperazin-1-yl)-10-(2,4-difluorophenyl)-3-((dimethylamino)methyl)-9-(trifluoromethyl)-2,3-dihydro-5H-[1,4]thiazino[2,3,4-ij]quinazolin-5-one]	
95.1	[2H]C([2H])([2H])OC[C@H]1CSc2c(-c3ccc(F)cc3F)c(C(F)(F)F)cc3c(N4C[C@@H](C)N(C(=O)C=C)[C@@H](C)C4)nc(=O)n1c23 (atropisomer, axis not shown) [Example 1423, (3S,10R)-7-((3S,5R)-4-acryloyl-3,5-dimethylpiperazin-1-yl)-10-(2,4-difluorophenyl)-3-((methoxy-d3)methyl)-9-(trifluoromethyl)-2,3-dihydro-5H-[1,4]thiazino[2,3,4-ij]quinazolin-5-one]	

The next lines start with the compound.

SMILES	% CAF 10 uM @ 60 min (60 min) [%]	other results
C=CC(=O)N1C[C@H](C)N(c2nc(=O)n3c4c(c(-c5cccc6cnn(C)c56)c(C(F)(F)F)cc24)SC[C@@H]3COC)C[C@H]1C (atropisomer, axis not shown) [Example 1101, (3S,10R)-7-((2S,5R)-4-acryloyl-2,5-dimethylpiperazin-1-yl)-3-(methoxymethyl)-10-(1-methyl-1H-indazol-7-yl)-9-(trifluoromethyl)-2,3-dihydro-5H-[1,4]thiazino[2,3,4-ij]quinazolin-5-one]		% CAF 10 uM @ 60 min (60 min incubation): 0%
C=CC(=O)N1CCN(c2nc(=O)n3c4c(c(-c5ccc(F)cc5)c(C(F)(F)F)cc24)SC[C@H](OCOC)C3)CC1 [Example 1005, (R)-8-(4-acryloylpiperazin-1-yl)-11-(4-fluorophenyl)-3-(methoxymethoxy)-10-(trifluoromethyl)-3,4-dihydro-2H,6H-[1,4]thiazepino[2,3,4-ij]quinazolin-6-one]		CAF (% binding after 60 min): 97%
C=CC(=O)N1CCN(c2nc(=O)n3c4c(c(-c5ccc(F)cc5)c(C(F)(F)F)cc24)SC[C@@H](OCCOC)C3)CC1 [Example 1017, (S)-8-(4-acryloylpiperazin-1-yl)-11-(4-fluorophenyl)-3-(2-methoxyethoxy)-10-(trifluoromethyl)-3,4-dihydro-2H,6H-[1,4]thiazepino[2,3,4-ij]quinazolin-6-one]		CAF (% binding after 60 min): 98%
C=CC(=O)N1[C@H](C)CN(c2nc(=O)n3c4c(c(-c5ccc(F)c(Cl)c5)c(C(F)(F)F)cc24)SC[C@@H](OC)C3)C[C@@H]1C [Example 1046, (S)-8-((3S,5R)-4-acryloyl-3,5-dimethylpiperazin-1-yl)-11-(3-chloro-4-fluorophenyl)-3-methoxy-10-(trifluoromethyl)-3,4-dihydro-2H,6H-[1,4]thiazepino[2,3,4-ij]quinazolin-6-one]		CAF (% binding after 60 min): 96%
C=CC(=O)N1C[C@H](C)N(c2nc(=O)n3c4c(c(-c5cc(Cl)c(F)cc5F)c(C(F)(F)F)cc24)SC[C@@H]3CN2C[C@@H]3C[C@H]2CO3)C[C@H]1C [Example 1304]	87	
C=CC(=O)N1C[C@H](C)N(c2nc(=O)n3c4c(c(-c5ccc(F)c(Cl)c5)c(C(F)(F)F)cc24)SC[C@@H](OC)C3)C[C@H]1C [Example 1201, (S)-8-((2S,5R)-4-acryloyl-2,5-dimethylpiperazin-1-yl)-11-(3-chloro-4-fluorophenyl)-3-methoxy-10-(trifluoromethyl)-3,4-dihydro-2H,6H-[1,4]thiazepino[2,3,4-ij]quinazolin-6-one]		CAF (% after 1 hour): 96%
C=CC(=O)N1[C@H](C)CN(c2nc(=O)n3c4c(c(-c5ccc(F)cc5F)c(C(F)(F)F)cc24)SC[C@@H](OCCN(C)C)C3)C[C@@H]1C [Example 1034, (3S)-8-((3S,5R)-4-acryloyl-3,5-dimethylpiperazin-1-yl)-11-(2,4-difluorophenyl)-3-(2-(dimethylamino)ethoxy)-10-(trifluoromethyl)-3,4-dihydro-2H,6H-[1,4]thiazepino[2,3,4-ij]quinazolin-6-one]		CAF (% binding after 60 min): 97%
C=CC(=O)N1[C@H](C)CN(c2nc(=O)n3c4c(c(-c5cc(Cl)c(F)cc5F)c(C(F)(F)F)cc24)SC[C@@H](Oc2cc(C)on2)C3)C[C@@H]1C [Example 1230, (3S,11R)-8-((3S,5R)-4-acryloyl-3,5-dimethylpiperazin-1-yl)-11-(5-chloro-2,4-difluorophenyl)-3-((5-methylisoxazol-3-yl)oxy)-10-(trifluoromethyl)-3,4-dihydro-2H,6H-[1,4]thiazepino[2,3,4-ij]quinazolin-6-one]		CAF (% after 1 hour): 94%
C=CC(=O)N1[C@H](C)CN(c2nc(=O)n3c4c(c(-c5ccc(F)c(Cl)c5)c(C(F)(F)F)cc24)SC[C@@H](OCC)C3)C[C@@H]1C [Example 1204, (S)-8-((3S,5R)-4-acryloyl-3,5-dimethylpiperazin-1-yl)-11-(3-chloro-4-fluorophenyl)-3-ethoxy-10-(trifluoromethyl)-3,4-dihydro-2H,6H-[1,4]thiazepino[2,3,4-ij]quinazolin-6-one]		CAF (% after 1 hour): 95%
C=CC(=O)N1[C@H](C)CN(c2nc(=O)n3c4c(c(-c5ccc(F)cc5F)c(C(F)(F)F)cc24)SC[C@@H]3COCOC)C[C@@H]1C (atropisomer, axis not shown) [Example 1319, (3S,10S)-7-((3S,5R)-4-acryloyl-3,5-dimethylpiperazin-1-yl)-10-(2,4-difluorophenyl)-3-((methoxymethoxy)methyl)-9-(trifluoromethyl)-2,3-dihydro-5H-[1,4]thiazino[2,3,4-ij]quinazolin-5-one]	96.3	
C=CC(=O)N1C[C@H](C)N(c2nc(=O)n3c4c(c(-c5cc(Cl)c(F)cc5F)c(C(F)(F)F)cc24)SC[C@@H]3CN2CCC3(CC2)COC3)C[C@H]1C (atropisomer, axis not shown) [Example 1312, (3S,10S)-3-((2-oxa-7-azaspiro[3.5]nonan-7-yl)methyl)-7-((2S,5R)-4-acryloyl-2,5-dimethylpiperazin-1-yl)-10-(5-chloro-2,4-difluorophenyl)-9-(trifluoromethyl)-2,3-dihydro-5H-[1,4]thiazino[2,3,4-ij]quinazolin-5-one]	72	
C=CC(=O)N1CCN(c2nc(=O)n3c4c(c(-c5ccc(F)cc5F)c(C(F)(F)F)cc24)SC[C@H](OCCOC)C3)CC1 [Example 1018, (3R)-8-(4-acryloylpiperazin-1-yl)-11-(2,4-difluorophenyl)-3-(2-methoxyethoxy)-10-(trifluoromethyl)-3,4-dihydro-2H,6H-[1,4]thiazepino[2,3,4-ij]quinazolin-6-one]		CAF (% binding after 60 min): 96%
